The record followed here is patent publication US8148391B2 (Cephalon, Inc., priority 2006, dated 2012).

Like-named read-outs stand apart in the source and are kept apart here.

Assay [1] addresses T1, baculovirus-expressed ALK (Homo sapiens, UniProt Q9UM73).
T1 construct: host or cells: baculovirus expression system
Nature of the assay: ALK Kinase Assay (ELISA-type, time-resolved fluorescence). It is filed as biochemical. Put shortly: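 Plates coated with phospholipase C-γ substrate (10 μg/mL in TBS); reaction started with 30 ng/ml ALK and run 15 min at 37° C. Phosphorylated substrate detected with Eu-N1-labeled PT66 antibody. IC50 from sigmoidal variable-slope fit of percent inhibition vs log concentration.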
For orientation: ELISA stands for enzyme-linked immunosorbent assay.

For assay [2], the target named is T2, c-Met (cytoplasmic domain) (Homo sapiens, UniProt P08581).
T2 construct: 10 ng/mL c-Met (cytoplasmic domain, Invitrogen Corporation #PV3143); purchased Invitrogen Corporation PV3143
Nature of the assay: c-Met Kinase Assay (same methods as for ALK, with modifications). It is filed as biochemical. The method, boiled down: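 Plates were coated with phospholipase C-γ substrate (10 μg/mL) in TBS, and the reaction was started with 10 ng/mL c-Met cytoplasmic domain and run 15 min at 37 °C. Phosphoproduct was detected with Eu-N1-labelled PT66 antibody. IC50 came from a variable-slope sigmoidal fit of percent inhibition vs log concentration.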

Setting [3] is: ALK kinase inhibition, 1 μM ATP, read-out: ALK Activity.
The mark [4] stands for this setting: c-Met kinase inhibition, 1 μM ATP, read-out: cMet Activity.
The mark [5] stands for this setting: 1 μM ATP (Km level), read-out: ALK Activity (ALK Kinase Inhibition, IC50).
Where [6] appears, read: 1 μM ATP (Km level), read-out: cMet Activity (c-Met Kinase Inhibition, IC50).
[7] abbreviates: 1 μM ATP (Km level), 30 ng/ml ALK, 37° C., 15 minutes, read-out: ALK Activity (ALK kinase inhibition, IC50 class).
Where [8] appears, read: 1 μM ATP (Km level), 10 ng/mL c-Met, read-out: cMet Activity (c-Met kinase inhibition, IC50 class).
Where [9] appears, read: ALK kinase inhibition, 1 μM ATP (Km level), read-out: ALK Activity.
Where [10] appears, read: c-Met kinase inhibition, 1 μM ATP (Km level), read-out: cMet Activity.

T2 sequence (P08581 956-1390 limits assumed): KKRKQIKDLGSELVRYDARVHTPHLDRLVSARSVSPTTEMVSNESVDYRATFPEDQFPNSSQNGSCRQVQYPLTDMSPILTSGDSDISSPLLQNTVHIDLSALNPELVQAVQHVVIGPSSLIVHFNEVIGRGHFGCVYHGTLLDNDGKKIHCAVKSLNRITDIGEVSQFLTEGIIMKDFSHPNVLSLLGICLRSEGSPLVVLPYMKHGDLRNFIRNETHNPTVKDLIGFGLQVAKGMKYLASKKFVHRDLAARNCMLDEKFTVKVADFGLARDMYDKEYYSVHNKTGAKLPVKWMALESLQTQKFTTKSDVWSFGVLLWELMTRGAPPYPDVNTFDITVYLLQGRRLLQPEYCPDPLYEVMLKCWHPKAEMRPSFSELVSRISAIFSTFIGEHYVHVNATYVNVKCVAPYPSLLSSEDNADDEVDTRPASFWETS
T1 sequence (Q9UM73 19-1620): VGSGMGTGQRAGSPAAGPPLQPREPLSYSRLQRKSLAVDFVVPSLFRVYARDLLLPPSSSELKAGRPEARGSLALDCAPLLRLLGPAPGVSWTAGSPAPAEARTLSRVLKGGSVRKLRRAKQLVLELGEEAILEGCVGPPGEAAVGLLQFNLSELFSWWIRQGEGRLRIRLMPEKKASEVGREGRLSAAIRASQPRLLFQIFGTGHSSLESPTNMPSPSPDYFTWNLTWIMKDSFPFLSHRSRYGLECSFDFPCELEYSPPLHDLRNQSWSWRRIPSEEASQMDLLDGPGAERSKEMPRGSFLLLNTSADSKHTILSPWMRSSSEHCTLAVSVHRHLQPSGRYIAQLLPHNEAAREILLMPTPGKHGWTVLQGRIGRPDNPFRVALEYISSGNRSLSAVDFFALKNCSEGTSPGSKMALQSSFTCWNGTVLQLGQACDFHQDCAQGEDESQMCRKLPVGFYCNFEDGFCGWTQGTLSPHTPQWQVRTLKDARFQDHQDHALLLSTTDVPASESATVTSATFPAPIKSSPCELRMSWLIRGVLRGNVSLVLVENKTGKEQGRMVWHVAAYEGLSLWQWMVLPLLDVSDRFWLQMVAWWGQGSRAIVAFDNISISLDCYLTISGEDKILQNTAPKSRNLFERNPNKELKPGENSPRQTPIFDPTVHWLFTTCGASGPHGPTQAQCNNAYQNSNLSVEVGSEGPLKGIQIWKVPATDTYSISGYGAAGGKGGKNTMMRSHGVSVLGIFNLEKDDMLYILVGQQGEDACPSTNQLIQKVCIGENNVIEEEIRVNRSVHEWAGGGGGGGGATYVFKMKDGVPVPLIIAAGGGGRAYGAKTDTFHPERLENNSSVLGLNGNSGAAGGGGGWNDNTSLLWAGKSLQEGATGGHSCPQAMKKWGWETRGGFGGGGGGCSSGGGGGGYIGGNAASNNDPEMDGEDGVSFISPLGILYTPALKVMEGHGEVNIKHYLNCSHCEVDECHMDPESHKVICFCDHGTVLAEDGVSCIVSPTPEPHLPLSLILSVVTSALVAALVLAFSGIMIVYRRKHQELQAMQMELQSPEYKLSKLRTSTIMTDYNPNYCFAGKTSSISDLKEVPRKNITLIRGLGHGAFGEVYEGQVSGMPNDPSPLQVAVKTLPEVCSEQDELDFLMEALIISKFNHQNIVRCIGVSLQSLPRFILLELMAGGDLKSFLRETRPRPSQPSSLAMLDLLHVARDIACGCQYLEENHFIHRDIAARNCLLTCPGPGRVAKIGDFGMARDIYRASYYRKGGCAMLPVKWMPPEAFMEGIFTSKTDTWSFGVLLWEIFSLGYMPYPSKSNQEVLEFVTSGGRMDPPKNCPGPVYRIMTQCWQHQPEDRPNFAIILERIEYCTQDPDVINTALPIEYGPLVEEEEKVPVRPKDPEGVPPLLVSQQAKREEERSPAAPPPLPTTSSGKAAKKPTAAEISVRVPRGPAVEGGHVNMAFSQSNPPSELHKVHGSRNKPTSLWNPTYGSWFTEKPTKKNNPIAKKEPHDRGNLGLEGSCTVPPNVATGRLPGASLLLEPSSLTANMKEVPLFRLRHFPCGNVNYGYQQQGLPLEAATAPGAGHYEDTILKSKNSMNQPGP

As for `COCCOc1cccc(F)c1Nc1nc(Nc2ccc3c(c2)NC(=O)CCC3)ncc1Cl` [Example 1695, 8-{5-Chloro-4-[2-fluoro-6-(2-methoxy-ethoxy)-phenylamino]-pyrimidin-2-ylamino}-1,3,4,5-tetrahydro-benzo[b]azepin-2-one], the IC50 in assay [1] (setting [3]) and in assay [2] (setting [4]) was 100 to 1000 nM throughout.
As for “2-[5-Chloro-2-(2-methyl-3-oxo-2,3,4,5-tetrahydro-1H-benzo[c]azepin-8-ylamino)-pyrimidin-4-ylamino]-N-methyl-benzamide and 2-[5-chloro-2-(2-methyl-3-oxo-2,3-dihydro-1H-benzo[c]azepin-8-ylamino)-pyrimidin-4-ylamino]-N-methyl-benzamide [Example 1798]”, the IC50 in assay [1] (setting [3]) and in assay [2] (setting [4]) was less than 100 nM throughout.
`COc1cc2c(cc1Nc1ncc(Cl)c(N[C@@H]3CCCC[C@H]3NS(C)(=O)=O)n1)NC(=O)CN(Cc1ccccc1)C2` [Example 1651, N-{(1R,2R)-2-[2-(4-Benzyl-7-methoxy-2-oxo-2,3,4,5-tetrahydro-1H-benzo[e][1,4]diazepin-8-ylamino)-5-chloro-pyrimidin-4-ylamino]-cyclohexyl}-methanesulfonamide]: the IC50 in assay [1] (setting [3]) is less than 100 nM; in assay [2] (setting [4]) it was greater than 10000 nM.
Turning to `COCCN1CCc2ccc(Nc3ncc(Cl)c(Nc4ccc(OC)c5c4C(=O)N(C)C5)n3)cc2CC1` [Example 936, 7-{5-Chloro-2-[3-(2-methoxy-ethyl)-2,3,4,5-tetrahydro-1H-3-benzazepin-7-ylamino]-pyrimidin-4-ylamino}-4-methoxy-2-methyl-2,3-dihydro-isoindol-1-one], the IC50 in assay [1] (setting [5]) was less than 100 nM; in assay [2] (setting [6]), 100 to 1000 nM.
Turning to `CNC(=O)c1ccc([N+](=O)[O-])cc1Nc1nc(Nc2ccc3c(c2)C(C)(C)CCC(=O)N3)ncc1Cl` [Example 1235, 2-[5-Chloro-2-(5,5-dimethyl-2-oxo-2,3,4,5-tetrahydro-1H-1-benzazepin-7-ylamino)-pyrimidin-4-ylamino]-N-methyl-4-nitro-benzamide], the IC50 in assay [1] (setting [7]) is less than 100 nM; in assay [2] (setting [8]), 100 to 1000 nM.
Turning to `COc1cc2c(cc1Nc1ncc(Cl)c(Nc3ccc(N4CCN(C)CC4)c(C)c3)n1)CCN(CC(=O)N(C)C)CC2` [Example 792, 2-(7-{5-Chloro-4-[3-methyl-4-(4-methyl-piperazin-1-yl)-phenylamino]-pyrimidin-2-ylamino}-8-methoxy-1,2,4,5-tetrahydro-benzo[d]azepin-3-yl)-N,N-dimethyl-acetamide], the figures for the IC50 in assay [1] (setting [5]) and in assay [2] (setting [6]) were less than 100 nM and greater than 10000 nM, respectively.
Turning to `CCN1C(=O)CCC(C)(C)c2ccc(Nc3ncc(Cl)c(Nc4c(F)cccc4N(C)CCC#N)n3)cc21` [Example 1264, 3-({2-[5-Chloro-2-(1-ethyl-5,5-dimethyl-2-oxo-2,3,4,5-tetrahydro-1H-1-benzazepin-8-ylamino)-pyrimidin-4-ylamino]-3-fluoro-phenyl}-methyl-amino)-propionitrile], the IC50 is 100 to 1000 nM in assay [1] (setting [7]) and 1000 to 10000 nM in assay [2] (setting [8]).
As for “(1S,2S,3R,4R)-3-{5-Chloro-2-[6-(2-hydroxy-ethylamino)-1-methoxy-6,7,8,9-tetrahydro-5H-benzocyclohepten-2-ylamino]-pyrimidin-4-ylamino}-bicyclo[2.2.1]hept-5-ene-2-carboxylic acid amide [Example 960]”, the IC50 was less than 100 nM in assay [1] (setting [5]) and greater than 10000 nM in assay [2] (setting [6]).
As to `CNC(=O)c1ccccc1Nc1nc(Nc2cc3c(cc2Cl)CC2CCC3N2CCOC)ncc1Cl` (centres unmarked) [Example 88, 2-{5-Chloro-2-[5-chloro-12-(2-methoxy-ethyl)-12-aza-tricyclo[7.2.1.0*2,7*]dodeca-2(7),3,5-trien-4-ylamino]-pyrimidin-4-ylamino}-N-methyl-benzamide], the IC50 in assay [1] (setting [9]) is less than 100 nM; in assay [2] (setting [10]), 1000 to 10000 nM.
Regarding `COc1cc2c(cc1Nc1ncc(Cl)c(Nc3ccc(N4CCN(C)CC4)cc3OC)n1)CCN(CC(N)=O)CC2` [Example 807, 2-(7-{5-Chloro-4-[2-methoxy-4-(4-methyl-piperazin-1-yl)-phenylamino]-pyrimidin-2-ylamino}-8-methoxy-1,2,4,5-tetrahydro-benzo[d]azepin-3-yl)-acetamide], the IC50 is less than 100 nM in assay [1] (setting [5]) and greater than 10000 nM in assay [2] (setting [6]).
As for `COc1cc(N2CCOCC2)ccc1Nc1nc(Nc2ccc3c(c2)N(C(C)=O)CCCC3(C)C)ncc1Cl` [Example 1598, 1-{8-[5-Chloro-4-(2-methoxy-4-morpholin-4-yl-phenylamino)-pyrimidin-2-ylamino]-5,5-dimethyl-2,3,4,5-tetrahydro-benzo[b]azepin-1-yl}-ethanone], the IC50 in assay [1] (setting [3]) fell in the range of 100 to 1000 nM; in assay [2] (setting [4]), 1000 to 10000 nM.
In the same order, the values of `CNC(=O)c1ccccc1Nc1nc(Nc2ccc3c(c2)CCOC(=O)N3C)ncc1Cl` [Example 1741, 2-[5-Chloro-2-(5-methyl-6-oxo-5,6,8,9-tetrahydro-7-oxa-5-aza-benzocyclohepten-2-ylamino)-pyrimidin-4-ylamino]-N-methylbenzamide] are less than 100 nM and less than 100 nM.
With `COCC(COC)N1CCc2cc(Nc3ncc(Cl)c(N[C@@H]4CCCC[C@H]4NS(C)(=O)=O)n3)c(OC)cc2CC1` [Example 816, N-((1R,2R)-2-{5-Chloro-2-[8-methoxy-3-(2-methoxy-1-methoxymethyl-ethyl)-2,3,4,5-tetrahydro-1H-benzo[d]azepin-7-ylamino]-pyrimidin-4-ylamino}-cyclohexyl)-methanesulfonamide], the IC50 in assay [1] (setting [5]) was less than 100 nM; in assay [2] (setting [6]) it was greater than 10000 nM.
For the compound `COc1cc(N2CCOCC2)ccc1Nc1nc(Nc2ccc3c(c2)CCN(S(C)(=O)=O)CC3)ncc1Cl` [Example 320, 5-Chloro-N*2*-(3-methanesulfonyl-2,3,4,5-tetrahydro-1H-benzo[d]azepin-7-yl]-N*4*-(2-methoxy-4-morpholin-4-yl-phenyl)-pyrimidine-2,4-diamine], the IC50 in assay [1] (setting [9]) is less than 100 nM; in assay [2] (setting [10]) it was 1000 to 10000 nM.
For `Cc1cccc(C(=O)NCC#N)c1Nc1nc(Nc2ccc3c(c2)C(C)(C)CCC(=O)N3)ncc1Cl` [Example 1038, 2-[5-Chloro-2-(5,5-dimethyl-2-oxo-2,3,4,5-tetrahydro-1H-benzo[b]azepin-7-ylamino)-pyrimidin-4-ylamino]-N-cyanomethyl-3-methyl-benzamide], the IC50 in assay [1] (setting [7]) was less than 100 nM; in assay [2] (setting [8]) it was 100 to 1000 nM.
For the compound `CNC(=O)CN1CCc2cc(Nc3ncc(F)c(Nc4ccc(N5CCN(C)CC5)cc4OC)n3)c(OC)cc2CC1` [Example 797, 2-(7-{5-Fluoro-4-[2-methoxy-4-(4-methyl-piperazin-1-yl)-phenylamino]-pyrimidin-2-ylamino}-8-methoxy-1,2,4,5-tetrahydro-benzo[d]azepin-3-yl)-N-methyl-acetamide], the IC50 is less than 100 nM in assay [1] (setting [5]) and greater than 10000 nM in assay [2] (setting [6]).
For the compound `CCN1C(=O)[C@@H](NC(=O)C2CC2)CCc2c1ccc(Nc1ncc(Cl)c(N[C@H]3[C@@H](C(N)=O)[C@@H]4C=C[C@H]3C4)n1)c2OC` (single isomer, unassigned) [Example 1358], the IC50 in assay [1] (setting [7]) was less than 100 nM; in assay [2] (setting [8]), greater than 10000 nM.
With `CNC(=O)c1cccc(F)c1Nc1nc(Nc2ccc3c(c2)N(C)CCCO3)ncc1Cl` [Example 1707, 2-[5-Chloro-2-(9-methyl-6,7,8,9-tetrahydro-5-oxa-9-aza-benzocyclohepten-2-ylamino)-pyrimidin-4-ylamino]-3-fluoro-N-methyl-benzamide], the IC50 in assay [1] (setting [3]) and in assay [2] (setting [4]) was less than 100 nM in each case.
`CNC(=O)c1cccc(F)c1Nc1nc(Nc2ccc3c(c2)CN(C)C(=O)CC3)ncc1Cl` [Example 1806, 3-Fluoro-2-[5-chloro-2-(2-methyl-3-oxo-2,3,4,5-tetrahydro-1H-benzo[c]azepin-8-ylamino)-pyrimidin-4-ylamino]-N-methyl-benzamide]: the IC50 was 1000 to 10000 nM in assay [1] (setting [3]) and less than 100 nM in assay [2] (setting [4]).
The like results for `CNC(=O)c1cccc(C)c1Nc1nc(Nc2ccc3c(c2)CCOC(=O)N3C)ncc1Cl` [Example 1744, 2-[5-Chloro-2-(5-methyl-6-oxo-5,6,8,9-tetrahydro-7-oxa-5-aza-benzocyclohepten-2-ylamino)-pyrimidin-4-ylamino]-3,N-dimethyl-benzamide] were, in that order, 1000 to 10000 nM and less than 100 nM.
The like results for `CNC(=O)c1cccc(Cl)c1Nc1nc(Nc2ccc3c(c2)CC(=O)N(C)CC3)ncc1Cl` [Example 1817, 3-Chloro-2-[5-chloro-2-(3-methyl-4-oxo-2,3,4,5-tetrahydro-1H-benzo[d]azepin-7-ylamino)-pyrimidin-4-ylamino]-N-methylbenzamide] were, in that order, 1000 to 10000 nM and 100 to 1000 nM.
Take `CC1(C)CCC(=O)Nc2ccc(Nc3ncc(Cl)c(Nc4c(F)cccc4C(=O)NCCC#N)n3)cc21` [Example 1041, 2-[5-Chloro-2-(5,5-dimethyl-2-oxo-2,3,4,5-tetrahydro-1H-benzo[b]azepin-7-ylamino)-pyrimidin-4-ylamino]-N-(2-cyano-ethyl)-3-fluoro-benzamide]: the results for the IC50 in assay [1] (setting [7]) and in assay [2] (setting [8]) were less than 100 nM and 100 to 1000 nM, respectively.
